Like-named read-outs stand apart in the source and are kept apart here.
Details: for Asthenia, Grade ≥ 3 / Chills, All Grade / Chills, Grade ≥ 3 / Colitis, All Grade / Colitis, Grade ≥ 3 / Cough, All Grade / Cough, Grade ≥ 3 / Decreased appetite, All Grade / Decreased appetite, Grade ≥ 3 / Decreased neutrophil count, All Grade / Decreased neutrophil count, Grade ≥ 3 / Dehydration, All Grade / Dehydration, Grade ≥ 3 / Diarrhea, All Grade / Diarrhea, Grade ≥ 3 / Dry mouth, All Grade / Dry mouth, Grade ≥ 3 / Dry skin, All Grade / Dry skin, Grade ≥ 3 / Dysgeusia, All Grade / Dysgeusia, Grade ≥ 3 / Fatigue, All Grade / Fatigue, Grade ≥ 3 / Headache, All Grade / Headache, Grade ≥ 3 / Hyperglycemia, All Grade / Hyperglycemia, Grade ≥ 3 / Hypomagnesaemia, All Grade / Hypomagnesaemia, Grade ≥ 3 / Maculo-papular rash, All Grade / Maculo-papular rash, Grade ≥ 3 / Nausea, All Grade / Nausea, Grade ≥ 3 / Pneumonitis, All Grade / Pneumonitis, Grade ≥ 3 / Pruritus, All Grade / Pruritus, Grade ≥ 3 / Pyrexia, All Grade / Pyrexia, Grade ≥ 3 / Rash, All Grade / Rash, Grade ≥ 3 / Stomatitis, All Grade / Stomatitis, Grade ≥ 3 / Vomiting, All Grade / Vomiting, Grade ≥ 3 / Weight decreased, All Grade / Weight decreased, Grade ≥ 3: drug-related
Source text: The primary objective was to define the maximum tolerated dose (MTD). Secondary objectives included assessments for safety, tolerability, pharmacokinetic (PK) profile, and preliminary antitumor activity.
Patients had histologically documented locally advanced or metastatic solid tumors harboring an activating PIK3CA mutation or amplification, PTEN loss of function, c-MET activation, [16, 17] […] Other key inclusion criteria included age ≥ 18 years, Eastern Cooperative Oncology Group performance status (ECOG-PS) ≤2, adequate organ function, measurable or non-measurable disease as determined by Response Evaluation Criteria in Solid Tumors (RECIST) version 1.1.
The starting dose for CLR457 was 5 mg QD, based on preclinical toxicology studies in accordance with ICH guidelines, and was administered at the same time each day ±2 h in a fasted state. Various doses were planned up to 300 mg QD until MTD determination.
Safety was evaluated by incidence, nature, severity, and relatedness of adverse events (AEs), and graded according to National Cancer Institute - Common Terminology Criteria for Adverse Events (NCI CTCAE) v4.0.3. DLTs were defined as any hematologic or non-hematologic ≥ Grade 3 AE assessed as possibly related to CLR457 that occurred within the first cycle (28 days) of treatment. In addition, uncontrolled (> 14 days) Grade 2 rash or hyperglycemia were also considered DLTs. All AEs regardless of attribution were collected until 30 days following the last administration of treatment or study discontinuation/termination.
Descriptive methods were used to tabulate toxicity and response endpoints in the clinical trial. All patients treated with CLR457 were included for safety. […] Dose escalation was guided by an adaptive Bayesian logistic regression model (BLRM) incorporating the escalation with overdose control (EWOC) principle. […] The study data (including DLTs during cycle 1 and other safety and PK data) were reviewed by the sponsor and trial investigators at each dose level. […] The Full Analysis Set (FAS) included all patients who received at least one dose of CLR457. Safety set included all patients who received at least one dose of CLR457 and had at least one valid post-baseline assessment. The Dose-determining set (DDS) included all patients from the safety set who either met the following minimum exposure criterion and had sufficient safety evaluations, or experienced a DLT during Cycle 1 (the first 28 days of dosing). The Pharmacokinetic analysis set included all patients who had at least one blood sample providing evaluable PK data.

C[C@H]1OC(=O)N(c2cc(-c3cnc(N)nc3C(F)(F)F)nc(N3CCOCC3)n2)[C@H]1CO [CLR457]
4 (13.8) n (%): Total DLTs in the first cycle (All Patients, DDS N = 29)
63.6%: Patients with at least one SAE irrespective of treatment (100 mg, 7 of 11 pts)
one: DLT maculo-papular rash (40 mg)
1 (3.4) n (%): DLT hyperglycemia in the first cycle (All Patients, DDS N = 29)
25.8%: Maculo-papular rash, grade 3/4 (all patients N = 31)
none: On-study deaths attributed to the study drug (all patients)
1 (50.0) n (%): Fatigue, All Grade (5 mg, N = 2)
4 (36.4) n (%): Treatment discontinuation, primary reason adverse event (100 mg, FAS N = 11)
3 patients: DLT maculo-papular rash (all doses)
1 patient: DLT Grade 3 hyperglycemia (100 mg)
Six: On-study deaths (all patients, 5 disease progression, 1 multi-organ failure)
two: DLT maculo-papular rash (100 mg)
0 n (%): DLT hyperglycemia in the first cycle (5 mg, DDS N = 2) | DLT maculo-papular rash in the first cycle (5 mg, DDS N = 2) | Total DLTs in the first cycle (5 mg, DDS N = 2) | Treatment discontinuation, primary reason adverse event (5 mg, FAS N = 2) | DLT hyperglycemia in the first cycle (10 mg, DDS N = 3) | DLT maculo-papular rash in the first cycle (10 mg, DDS N = 3) | Total DLTs in the first cycle (10 mg, DDS N = 3) | Treatment discontinuation, primary reason adverse event (10 mg, FAS N = 3) | DLT hyperglycemia in the first cycle (20 mg, DDS N = 4) | DLT maculo-papular rash in the first cycle (20 mg, DDS N = 4) | Total DLTs in the first cycle (20 mg, DDS N = 4) | Treatment discontinuation, primary reason adverse event (20 mg, FAS N = 4) | DLT hyperglycemia in the first cycle (40 mg, DDS N = 5) | DLT hyperglycemia in the first cycle (70 mg, DDS N = 6) | DLT maculo-papular rash in the first cycle (70 mg, DDS N = 6) | Total DLTs in the first cycle (70 mg, DDS N = 6) | Treatment discontinuation, primary reason adverse event (70 mg, FAS N = 6) | Asthenia, Grade ≥ 3 (5 mg, N = 2) | Chills, All Grade (5 mg, N = 2) | Chills, Grade ≥ 3 (5 mg, N = 2) | Colitis, All Grade (5 mg, N = 2) | Colitis, Grade ≥ 3 (5 mg, N = 2) | Cough, All Grade (5 mg, N = 2) | Cough, Grade ≥ 3 (5 mg, N = 2) | Decreased appetite, All Grade (5 mg, N = 2) | Decreased appetite, Grade ≥ 3 (5 mg, N = 2) | Decreased neutrophil count, All Grade (5 mg, N = 2) | Decreased neutrophil count, Grade ≥ 3 (5 mg, N = 2) | Dehydration, All Grade (5 mg, N = 2) | Dehydration, Grade ≥ 3 (5 mg, N = 2) | Diarrhea, All Grade (5 mg, N = 2) | Diarrhea, Grade ≥ 3 (5 mg, N = 2) | Dry mouth, All Grade (5 mg, N = 2) | Dry mouth, Grade ≥ 3 (5 mg, N = 2) | Dry skin, All Grade (5 mg, N = 2) | Dry skin, Grade ≥ 3 (5 mg, N = 2) | Dysgeusia, All Grade (5 mg, N = 2) | Dysgeusia, Grade ≥ 3 (5 mg, N = 2) | Fatigue, Grade ≥ 3 (5 mg, N = 2) | Headache, All Grade (5 mg, N = 2) | Headache, Grade ≥ 3 (5 mg, N = 2) | Hyperglycemia, All Grade (5 mg, N = 2) | Hyperglycemia, Grade ≥ 3 (5 mg, N = 2) | Hypomagnesaemia, All Grade (5 mg, N = 2) | Hypomagnesaemia, Grade ≥ 3 (5 mg, N = 2) | Maculo-papular rash, All Grade (5 mg, N = 2) | Maculo-papular rash, Grade ≥ 3 (5 mg, N = 2) | Nausea, All Grade (5 mg, N = 2) | Nausea, Grade ≥ 3 (5 mg, N = 2) | Pneumonitis, All Grade (5 mg, N = 2) | Pneumonitis, Grade ≥ 3 (5 mg, N = 2) | Pruritus, All Grade (5 mg, N = 2) | Pruritus, Grade ≥ 3 (5 mg, N = 2) | Pyrexia, All Grade (5 mg, N = 2) | Pyrexia, Grade ≥ 3 (5 mg, N = 2) | Rash, All Grade (5 mg, N = 2) | Rash, Grade ≥ 3 (5 mg, N = 2) | Stomatitis, All Grade (5 mg, N = 2) | Stomatitis, Grade ≥ 3 (5 mg, N = 2) | Vomiting, All Grade (5 mg, N = 2) | Vomiting, Grade ≥ 3 (5 mg, N = 2) | Weight decreased, All Grade (5 mg, N = 2) | Weight decreased, Grade ≥ 3 (5 mg, N = 2) | Asthenia, Grade ≥ 3 (10 mg, N = 3) | Chills, All Grade (10 mg, N = 3) | Chills, Grade ≥ 3 (10 mg, N = 3) | Colitis, All Grade (10 mg, N = 3) | Colitis, Grade ≥ 3 (10 mg, N = 3) | Cough, All Grade (10 mg, N = 3) | Cough, Grade ≥ 3 (10 mg, N = 3) | Decreased appetite, All Grade (10 mg, N = 3) | Decreased appetite, Grade ≥ 3 (10 mg, N = 3) | Decreased neutrophil count, All Grade (10 mg, N = 3) | Decreased neutrophil count, Grade ≥ 3 (10 mg, N = 3) | Dehydration, All Grade (10 mg, N = 3) | Dehydration, Grade ≥ 3 (10 mg, N = 3) | Diarrhea, All Grade (10 mg, N = 3) | Diarrhea, Grade ≥ 3 (10 mg, N = 3) | Dry mouth, All Grade (10 mg, N = 3) | Dry mouth, Grade ≥ 3 (10 mg, N = 3) | Dry skin, All Grade (10 mg, N = 3) | Dry skin, Grade ≥ 3 (10 mg, N = 3) | Dysgeusia, All Grade (10 mg, N = 3) | Dysgeusia, Grade ≥ 3 (10 mg, N = 3) | Fatigue, Grade ≥ 3 (10 mg, N = 3) | Headache, All Grade (10 mg, N = 3) | Headache, Grade ≥ 3 (10 mg, N = 3) | Hyperglycemia, All Grade (10 mg, N = 3) | Hyperglycemia, Grade ≥ 3 (10 mg, N = 3) | Hypomagnesaemia, All Grade (10 mg, N = 3) | Hypomagnesaemia, Grade ≥ 3 (10 mg, N = 3) | Maculo-papular rash, All Grade (10 mg, N = 3) | Maculo-papular rash, Grade ≥ 3 (10 mg, N = 3) | Nausea, Grade ≥ 3 (10 mg, N = 3) | Pneumonitis, All Grade (10 mg, N = 3) | Pneumonitis, Grade ≥ 3 (10 mg, N = 3) | Pruritus, All Grade (10 mg, N = 3) | Pruritus, Grade ≥ 3 (10 mg, N = 3) | Pyrexia, All Grade (10 mg, N = 3) | Pyrexia, Grade ≥ 3 (10 mg, N = 3) | Rash, All Grade (10 mg, N = 3) | Rash, Grade ≥ 3 (10 mg, N = 3) | Stomatitis, All Grade (10 mg, N = 3) | Stomatitis, Grade ≥ 3 (10 mg, N = 3) | Vomiting, All Grade (10 mg, N = 3) | Vomiting, Grade ≥ 3 (10 mg, N = 3) | Weight decreased, All Grade (10 mg, N = 3) | Weight decreased, Grade ≥ 3 (10 mg, N = 3) | Asthenia, Grade ≥ 3 (20 mg, N = 4) | Chills, All Grade (20 mg, N = 4) | Chills, Grade ≥ 3 (20 mg, N = 4) | Colitis, All Grade (20 mg, N = 4) | Colitis, Grade ≥ 3 (20 mg, N = 4) | Cough, All Grade (20 mg, N = 4) | Cough, Grade ≥ 3 (20 mg, N = 4) | Decreased appetite, All Grade (20 mg, N = 4) | Decreased appetite, Grade ≥ 3 (20 mg, N = 4) | Decreased neutrophil count, All Grade (20 mg, N = 4) | Decreased neutrophil count, Grade ≥ 3 (20 mg, N = 4) | Dehydration, All Grade (20 mg, N = 4) | Dehydration, Grade ≥ 3 (20 mg, N = 4) | Diarrhea, All Grade (20 mg, N = 4) | Diarrhea, Grade ≥ 3 (20 mg, N = 4) | Dry mouth, All Grade (20 mg, N = 4) | Dry mouth, Grade ≥ 3 (20 mg, N = 4) | Dry skin, All Grade (20 mg, N = 4) | Dry skin, Grade ≥ 3 (20 mg, N = 4) | Dysgeusia, All Grade (20 mg, N = 4) | Dysgeusia, Grade ≥ 3 (20 mg, N = 4) | Fatigue, Grade ≥ 3 (20 mg, N = 4) | Headache, All Grade (20 mg, N = 4) | Headache, Grade ≥ 3 (20 mg, N = 4) | Hyperglycemia, All Grade (20 mg, N = 4) | Hyperglycemia, Grade ≥ 3 (20 mg, N = 4) | Hypomagnesaemia, All Grade (20 mg, N = 4) | Hypomagnesaemia, Grade ≥ 3 (20 mg, N = 4) | Maculo-papular rash, All Grade (20 mg, N = 4) | Maculo-papular rash, Grade ≥ 3 (20 mg, N = 4) | Nausea, All Grade (20 mg, N = 4) | Nausea, Grade ≥ 3 (20 mg, N = 4) | Pneumonitis, All Grade (20 mg, N = 4) | Pneumonitis, Grade ≥ 3 (20 mg, N = 4) | Pruritus, All Grade (20 mg, N = 4) | Pruritus, Grade ≥ 3 (20 mg, N = 4) | Pyrexia, All Grade (20 mg, N = 4) | Pyrexia, Grade ≥ 3 (20 mg, N = 4) | Rash, Grade ≥ 3 (20 mg, N = 4) | Stomatitis, All Grade (20 mg, N = 4) | Stomatitis, Grade ≥ 3 (20 mg, N = 4) | Vomiting, All Grade (20 mg, N = 4) | Vomiting, Grade ≥ 3 (20 mg, N = 4) | Weight decreased, All Grade (20 mg, N = 4) | Weight decreased, Grade ≥ 3 (20 mg, N = 4) | Asthenia, Grade ≥ 3 (40 mg, N = 5) | Chills, All Grade (40 mg, N = 5) | Chills, Grade ≥ 3 (40 mg, N = 5) | Colitis, All Grade (40 mg, N = 5) | Colitis, Grade ≥ 3 (40 mg, N = 5) | Cough, All Grade (40 mg, N = 5) | Cough, Grade ≥ 3 (40 mg, N = 5) | Decreased appetite, Grade ≥ 3 (40 mg, N = 5)
5 (16.1) n (%): Treatment discontinuation, primary reason adverse event (All Patients, FAS N = 31)
1 (20.0) n (%): DLT maculo-papular rash in the first cycle (40 mg, DDS N = 5) | Total DLTs in the first cycle (40 mg, DDS N = 5) | Treatment discontinuation, primary reason adverse event (40 mg, FAS N = 5) | Decreased appetite, All Grade (40 mg, N = 5)
3 (33.3) n (%): Total DLTs in the first cycle (100 mg, DDS N = 9)
1 (33.3) n (%): Fatigue, All Grade (10 mg, N = 3) | Nausea, All Grade (10 mg, N = 3)
58.1%: AEs requiring dose interruptions or dose reductions (all patients, 18 patients)
44.44%: Maculo-papular rash requiring dose interruption or reduction (8 patients)
45.5%: Rash ≥ grade 3 (100 mg cohort (n = 11))
1 (11.1) n (%): DLT hyperglycemia in the first cycle (100 mg, DDS N = 9)
3 (10.3) n (%): DLT maculo-papular rash in the first cycle (All Patients, DDS N = 29)
27.3%: Patients with a DLT in the 100 mg cohort (100 mg, 3 of 11 patients)
1 (25.0) n (%): Fatigue, All Grade (20 mg, N = 4) | Rash, All Grade (20 mg, N = 4)
51.6%: Patients with Grade 3/4 drug-related AEs (all patients N = 31)
100%: Patients with ≥ grade 3 toxicity (100 mg cohort (n = 11))
2 (22.2) n (%): DLT maculo-papular rash in the first cycle (100 mg, DDS N = 9)
22%: Diarrhea requiring dose interruption or reduction (4 patients)

— publication PMC6440935, “Characterization and phase I study of CLR457, an orally bioavailable pan-class I PI3-kinase inhibitor” (Investigational New Drugs, 2018)
